Like-named read-outs stand apart in the source and are kept apart here.

The results in this text go back to patent US9101136B2, “Synergistic herbicide/fungicide composition containing certain pyridine carboxylic acids and certain fungicides” (Dow AgroSciences LLC, priority 2010, dated 2015).

What all share (format): in vivo
In data set [1] the test system is wild pansy (Viola tricolor L; VIOTR). In words: Postemergence herbicidal activity of mixtures on wild pansy. Here is the method: (§1) Seeds of the desired test plant species were planted in Sun Gro MetroMix 306 planting mixture, which typically has a pH of 6.0 to 6.8 and an organic matter content of about 30 percent, in plastic pots with a surface area of 103.2 square centimeters (cm^2). When required to ensure good germination and healthy plants, a fungicide treatment and/or other chemical or physical treatment was applied. The plants were grown for 7-36 days (d) in a greenhouse with an approximate 14-hour (h) photoperiod which was maintained at about 18° C. during the day and 17° C. during the night. Nutrients and water were added on a regular basis and supplemental lighting was provided with overhead metal halide 1000-Watt lamps as necessary. The plants were employed for testing when they reached the second or third true leaf stage.
(§2) Treatments consisted of a cereal fungicide compound (as listed in Tables 1 through 34) and the cereal herbicide, 4-amino-3-chloro-6-(4-chloro-2-fluoro-3-methoxyphenyl)pyridine-2-carboxylic acid, alone and in combination. Weighed amounts of acid, esters (methyl) or salts (triethylammonium, TEA) of 4-amino-3-chloro-6-(4-chloro-2-fluoro-3-methoxyphenyl)pyridine-2-carboxylic acid (Compound I) were placed in 25 milliliter (mL) glass vials and dissolved in a volume of 97:3 volume-to-volume (v/v) acetone/dimethyl sulfoxide (DMSO) to obtain 4.5 milligrams active ingredient per milliliter (mg ai/mL) concentrated solutions. […] The concentrated solutions of Compound I were diluted to 1.5 mg ai/mL with the addition of 2 volumes of an aqueous mixture containing acetone, water, isopropyl alcohol, DMSO, Agri-dex crop oil concentrate, and Triton® X-77 surfactant in a 64.7:26.0:6.7:2.0:0.7:0.01 v/v ratio. A dilution solution was prepared by mixing 1 volume of 97:3 v/v acetone/DMSO and 2 volumes of an aqueous mixture containing acetone, water, isopropyl alcohol, DMSO, Agri-dex crop oil concentrate, and Triton® X-77 surfactant in a 64.7:26.0:6.7:2.0:0.7:0.01 v/v ratio. Compound requirements are based upon a 12 mL application volume at a rate of 187 liters per hectare (L/ha). The concentrated solutions of the cereal fungicides were prepared following the same procedure. Weighed amounts of fungicide were placed in 25 mL glass vials and dissolved in a volume of 97:3 v/v acetone/DMSO to obtain concentrated fungicide solutions. The concentrated solutions of the safener were prepared following the same procedure. Weighed amounts of safener were placed in 25 mL glass vials and dissolved in a volume of 97:3 v/v acetone/DMSO to obtain concentrated safener solutions.
(§3) Spray solutions of the cereal herbicide and the fungicidal compound mixtures were prepared by adding the concentrated solutions to the appropriate amount of dilution solution to form 12 mL spray solution with active ingredients in combinations. Spray solutions of the cereal herbicide, herbicide safener and the fungicidal compound mixtures were prepared by adding the concentrated solutions to the appropriate amount of dilution solution to form 12 mL spray solution with active ingredients in combinations.
(§4) Formulated compounds were applied to the plant material with an overhead Mandel track sprayer equipped with 8002E nozzles calibrated to deliver 187 L/ha over an application area of 0.503 square meters (m^2) at a spray height of 18 inches […] above average plant canopy. Control plants were sprayed in the same manner with the solvent blank.
(§5) The treated plants and control plants were placed in a greenhouse as described above and watered by sub-irrigation to prevent wash-off of the test compounds. After 20-22 d, the condition of the test plants as compared with that of the control plants was determined visually and scored on a scale of 0 to 100 percent where 0 corresponds to no injury and 100 corresponds to complete kill. […]

Data set [2] has as its system redroot pigweed (Amaranthus retroflexus L; AMARE). The data set is described as follows: Postemergence herbicidal activity of mixtures on redroot pigweed. The note with it: for AMARE Ob (observed control): alone. As for the experimental part:
as §1, §2
(§6) Spray solutions of the cereal herbicide and the fungicidal compound mixtures were prepared by adding the concentrated solutions to the appropriate amount of dilution solution to form 12 mL spray solution with active ingredients in combinations. Spray solutions of the cereal herbicide, herbicide safener and the fungicidal compound mixtures were prepared by adding the concentrated solutions to the appropriate amount of dilution solution to form 12 mL spray solution with active ingredients in combinations. […]
as §5

Data set [3] concerns lamb's-quarter (Chenopodium album L; CHEAL). In words: Postemergence herbicidal activity of mixtures on lamb's-quarter. The note with it: for CHEAL Ob (observed control): alone. Here is the method: as §1
as §2, with “The concentrated solutions of the safener were prepared following the same procedure. Weighed amounts of safener were placed in 25 mL glass vials and dissolved in a volume of 97:3 v/v acetone/DMSO to obtain concentrated safener solutions.” left out
as §5

Data set [4] concerns Canada thistle (Cirsium arvense L; CIRAR). The data set is described as follows: Postemergence herbicidal activity of mixtures on Canada thistle. Particulars: for CIRAR Ob (observed control): alone. Here is the method:
as §1, §2, §6, §5

The test system of data set [5] is chickweed (Stellaria media L; STEME). The data set is described as follows: Postemergence herbicidal activity of mixtures on chickweed. Particulars: for STEME Ob (observed control): alone. As for the experimental part:
as §1
Treatments consisted of a cereal fungicide compound (as listed in Tables 1 through 34) and the cereal herbicide, 4-amino-3-chloro-6-(4-chloro-2-fluoro-3-methoxyphenyl)pyridine-2-carboxylic acid, alone and in combination. Weighed amounts of acid, esters (methyl) or salts (triethylammonium, TEA) of 4-amino-3-chloro-6-(4-chloro-2-fluoro-3-methoxyphenyl)pyridine-2-carboxylic acid (Compound I) were placed in 25 milliliter (mL) glass vials and dissolved in a volume of 97:3 volume-to-volume (v/v) acetone/dimethyl sulfoxide (DMSO) to obtain 4.5 milligrams active ingredient per milliliter (mg ai/mL) concentrated solutions. […] The concentrated solutions of Compound I were diluted to 1.5 mg ai/mL with the addition of 2 volumes of an aqueous mixture containing acetone, water, isopropyl alcohol, DMSO, Agri-dex crop oil concentrate, and Triton® X-77 surfactant in a 64.7:26.0:6.7:2.0:0.7:0.01 v/v ratio. […]
as §5

In data set [6] the test system is kochia (Kochia scoparia L; KCHSC). In words: Postemergence herbicidal activity of mixtures on kochia. Particulars: for KCHSC Ob (observed control): alone. On the set-up: KCHSC Ob: unit: %. As for the experimental part: as §1, §2, §3, §4, §5
In data set [7] the test system is scented mayweed (Matricaria chamomila L; MATCH). In words: Postemergence herbicidal activity of mixtures on scented mayweed. Particulars: for MATCH Ob (observed control): alone. Here is the method:
as §1, §2, §3, §4, §5

The subject of data set [8] is Russian thistle (Salsola iberica L; SASKR). The data set is described as follows: Postemergence herbicidal activity of mixtures on Russian thistle. The note with it: for SASKR Ob (observed control): alone. As for the experimental part:
as §1, §2, §3, §4, §5

Data set [9] deals with bird's-eye speedwell (Veronica persica L; VERPE). The data set is described as follows: Postemergence herbicidal activity of mixtures on bird's-eye speedwell. Particulars: for VERPE Ob (observed control): alone. Here is the method:
as §1, §2, §3, §4, §5

The next data set relates to Wheat. In words: Safening activity of herbicidal compositions on wheat (crop injury). The note with it: for TRZAS Ob (observed injury): alone. Here is the method: as §1, §2, §3, §4, §5
The subject of a further data set is Barley. The data set is described as follows: Safening activity of herbicidal compositions on barley (crop injury). The note with it: for HORVS Ob (observed injury): alone. As for the experimental part: as §1, §2, §3, §4, §5

As for `CC(Cc1ccc(C(C)(C)C)cc1)CN1CCCCC1` (racemic) [Fenpropidin, (±)-1-[3-[4-(1,1-dimethylethyl)phenyl]-2-methylpropyl]piperidine], the pest or weed control at 562.5 g/ha in data set [1] (Viola tricolor, post-emergence, fungicide 562.5 g/ha alone, read-out: VIOTR Ob) was 0%. In data set [2] (fungicide 562.5 g/ha alone), the “AMARE Ob” value is reported as 0%. Also, the “CHEAL Ob” value in data set [3] (fungicide 562.5 g/ha alone) turned out to be 0%. Also, the “CIRAR Ob” value in data set [4] (fungicide 562.5 g/ha alone) amounted to 0%.
As for `CO/C=C(/C(=O)OC)c1ccccc1COc1cccc(C(F)(F)F)n1` [Picoxystrobin, methyl (E)-(α)-(methoxymethylene)-2-[[[6-(trifluoromethyl)-2-pyridinyl]oxy]methyl]benzeneacetate], in data set [1] (fungicide 250 g/ha alone), the “VIOTR Ob” value turned out to be 0%. Moreover, the “AMARE Ob” value in [2] (fungicide 250 g/ha alone) is reported as 0%. The “CHEAL Ob” value in data set [3] (fungicide 250 g/ha alone) worked out at 0%. The “STEME Ob” value in data set [5] (fungicide 250 g/ha alone) was determined as 0%. Also, the “CIRAR Ob” value in data set [4] (fungicide 250 g/ha alone) is reported as 0%.
On to `COC(=O)NC(=S)Nc1ccccc1NC(=S)NC(=O)OC` [Thiophanate-methyl, dimethyl[1,2-phenylenebis(iminocarbonothioyl)]bis[carbamate]], for which the pest or weed control at 750 g/ha in [1] (Viola tricolor, post-emergence, alone, 750 g/ha, read-out: VIOTR Ob (observed control)) is 0%. In data set [2] (750 g/ha), the “AMARE Ob (observed control)” value came out at 0%. Also, the “CHEAL Ob (observed control)” value in data set [3] (750 g/ha) amounted to 0%. Further, the “STEME Ob (observed control)” value in [5] (750 g/ha) is 0%. Further, the “CIRAR Ob (observed control)” value in [4] (750 g/ha) is 0%.
Consider `CC(C)NC(=O)N1CC(=O)N(c2cc(Cl)cc(Cl)c2)C1=O` [Iprodione, 3-(3,5-dichlorophenyl)-N-(1-methylethyl)-2,4-dioxo-1-imidazolidine=carboxamide], for which the pest or weed control at 750 g/ha in data set [1] (Viola tricolor, post-emergence, fungicide 750 g/ha alone, read-out: VIOTR Ob) was determined as 0%. Besides, the “AMARE Ob” value in [2] (fungicide 750 g/ha alone) is recorded as 0%. Further, in data set [4] (fungicide 750 g/ha alone), the “CIRAR Ob” value came to 0%.
On to `CC(C)(C)C(O)(CCc1ccc(Cl)cc1)Cn1cncn1` (stereo not drawn) [Tebuconazole, α-[2-(4-chlorophenyl)ethyl]-α-(1,1-dimethylethyl)-1H-1,2,4-triazole-1-ethanol], for which the “KCHSC Ob (observed control)” value in [6] (31.25 g/ha), in data set [6] (62.5 g/ha) and in [6] (250 g/ha) was 0% each time. Further, in data set [6] (fungicide 250 g/ha), the “KCHSC Ob” value is 0. Further, the “MATCH Ob (observed control)” value in data set [7] (31.25 g/ha), in data set [7] (62.5 g/ha) and in [7] (250 g/ha) was 0% each time. Further, the “MATCH Ob” value in data set [7] (fungicide 250 g/ha) is listed as 0. Further, the “SASKR Ob (observed control)” value in [8] (31.25 g/ha), in [8] (62.5 g/ha) and in data set [8] (250 g/ha) was 0% each time. The “SASKR Ob” value in [8] (fungicide 250 g/ha) is given as 0. In addition, the “VERPE Ob (observed control)” value in data set [9] (31.25 g/ha), in [9] (62.5 g/ha) and in [9] (250 g/ha) was 0% throughout. The “VERPE Ob” value in data set [9] (fungicide 250 g/ha) was determined as 0. In data set [1] (Viola tricolor, post-emergence, alone, 31.25 g/ha, read-out: VIOTR Ob (observed control)), the pest or weed control at 31.25 g/ha is 0%. In addition, in [1] (Viola tricolor, post-emergence, alone, 62.5 g/ha, read-out: VIOTR Ob (observed control)), the pest or weed control at 62.5 g/ha is 0%. Besides, the pest or weed control at 250 g/ha in data set [1] (Viola tricolor, post-emergence, alone, 250 g/ha, read-out: VIOTR Ob (observed control)) was determined as 0%. Moreover, the “VIOTR Ob” value in [1] (fungicide 250 g/ha) amounted to 0. Moreover, the “TRZAS Ob (observed injury)” value in the data set with Wheat (62.5 g/ha) and in the data set with Wheat (250 g/ha) was 0% in each case. The “TRZAS Ob” value in the data set with Wheat (fungicide 250 g/ha) was determined as 0. The “HORVS Ob (observed injury)” value with Barley (62.5 g/ha) and in the data set on Barley (250 g/ha) was 0% throughout. In the data set with Barley (fungicide 250 g/ha), the “HORVS Ob” value is listed as 0.
As for `FC(F)C(F)(F)OCC(Cn1cncn1)c1ccc(Cl)cc1Cl` (racemic) [Tetraconazole, (±)-1-[2-(2,4-dichlorophenyl)-3-(1,1,2,2-tetrafluoroethoxy)propyl]-1H-1,2,4-triazole], in [1] (Viola tricolor, post-emergence, alone, 125 g/ha, read-out: VIOTR Ob (observed control)), the pest or weed control at 125 g/ha amounted to 0%. For the same compound, the “AMARE Ob (observed control)” value in data set [2] (125 g/ha) is on record as 0%. Also, the “CHEAL Ob (observed control)” value in [3] (125 g/ha) amounted to 0%. For the same compound, the “STEME Ob (observed control)” value in [5] (125 g/ha) was 0%. Also, in data set [4] (125 g/ha), the “CIRAR Ob (observed control)” value is 0%.
For the compound `COc1c(Cl)ccc(-c2nc(C(=O)O)c(Cl)c(N)c2F)c1F` [Compound I Acid], the “KCHSC Ob” value in data set [6] (Compound I Acid 35 g/ha) is given as 98. Moreover, the “MATCH Ob” value in data set [7] (Compound I Acid 35 g/ha) came to 87. Besides, the “SASKR Ob” value in [8] (Compound I Acid 35 g/ha) is on record as 89. Also, the “VERPE Ob” value in data set [9] (Compound I Acid 35 g/ha) stood at 72. Besides, the “VIOTR Ob” value in data set [1] (Compound I Acid 35 g/ha) was 60. For the same compound, in the data set on Wheat (Compound I Acid 35 g/ha), the “TRZAS Ob” value is 22. Also, the “HORVS Ob” value in the data set with Barley (Compound I Acid 35 g/ha) amounted to 15.
